The record followed here is patent EP0525360B1, “Novel phenylacetamide derivatives and processes for the preparation thereof” (KOREA RESEARCH INSTITUTE OF CHEMICAL TECHNOLOGY, priority 1991, dated 1993).

Each structure is given as a SMILES string. Where a name gives a salt, the structure may show the parent alone. Read-outs that look alike come from different tables or passages of the source. A value given as a limit tells only on which side of the number the result lay.

Series [1] has as its system Rats(Sprague-Dawley, female). Nature of the series: Anti-inflammatory test (carrageenin paw edema). Type of series: in vivo. The following applies: Rattus norvegicus, sc. The method, then: Rats(Sprague-Dawley, female) weighing 100 to 120g were used. Twenty minutes after the test drug was administered(s. c.), carrageenin was injected(0.1mℓ of 1% solution, s. c.) in the plantar surface of the right hind paw.
The percentage of inhibition was determined by the following equation: Inhibition(%) =(Volume of the carrageenin treated foot - Volume of the control foot)/(Volume of the contol foot)x 100 [formula]
For orientation: In the carrageenan paw model, swelling and tenderness develop within hours.

For series [2], the system named is mice. Nature of the series: Tail-flick test (radiant heat). Format: in vivo. The method, then: Radiant heat was applied using a beam of high-intensity light focused on a tail spot. The response time, defined as the interval between the onset of the stimulus and the tail flick, was measured electronically(to the nearest 0.1 second). The beam intensity was set at a level giving a mean control reaction time of 3.8±0.4 seconds. […] The percentage of inhibition was determined by the following equation: Inhibition(%) =(Reaction time of the treated group - Reaction time of the control group)/(Reaction time of the control group)x 100 [formula]
A general note: Thermal pain tests record how soon the animal reacts.

Series [3] concerns Male albino rats(120-170g) of the Charles River Sprague-Dawley strain. In words: Randall-Selitto test (yeast induced hyperalgesia). Type of series: in vivo. The procedure:
Randall-Selitto Test was carried out by following the method described in Arch. Int. Pharmacodyn.
Male albino rats(120-170g) of the Charles River Sprague-Dawley strain were used. Inflammation was produced by the injection of 0.1mℓ of a 20% suspension of Brewer's yeast into the plantar surface of the rat's hind foot.
The pain threshold was measured as the pressure in mmHg required to induce the desired response(a sharp audible squeak and/or struggle) when the pressure was applied to the foot. Air pressure from an air line was admitted through a needle valve to a 20mℓ glass syringe and to a pressure gauge which was connected by a T-tube. The syringe was mounted with the plunger downward to which was connected a short bullet-shaped Teflon peg. The pressure was applied to the foot of the rat at the rate of 10 mmHg per second. Drug was given 2 hours after the yeast injection. Two hours after the drug administration, threshold response was determined.
The analgesic activity was determined in terms of the percentage of inhibition of response: Inhibition(%) =(Threshold of the treated group - Threshold of the control group)/(Threshold of the control group)x 100 [formula]

Series [4] has as its system Salmonella typhimurium TA 100. Nature of the series: mutagenicity test (Maron and Ames). Format: cell-based. The following applies: 3.2, 16, 80 and 400µg/plate. The procedure: (§1) The numbers of mutated colonies were not increased at concentrations of 3.2, 16, 80 and 400µg/plate for the test compound.
For series [5], the system named is Salmonella typhimurium TA98. In words: mutagenicity test (Maron and Ames). Format: cell-based. The following applies: 3.2, 16, 80 and 400µg/plate. The method, then: as §1
Series [6] concerns Rats(Sprague-Dawley, female). In words: Local anti-inflammatory test (transdermal, carrageenin paw edema). Type of series: in vivo. The following applies: for Double Dose(24 hr), percentage of inhibition: transdermal double dose (second application 7 hours later), edema measured 24 hours later; for Single Dose(1 hr), percentage of inhibition: transdermal single dose, edema measured 1 hour later. The method, then: Rats(Sprague-Dawley, female) weighing 100 to 120g were used. 20 minutes after the test drug was administered transdermally (another application 7 hours later for double dose experiment), carrageenin was injected(0.1ml of 1% solution, s. c.) into the plantar surface of the right hind paw. The volume of the edema was measured with a volumeter either 1 hour later for […] dose experiment or 24 hours later for double dose experiment; and the percentage of inhibition was measured by the same equation as used in Anti-inflammatory Test.

The nature of series [7]: Use Examples: administration of compositions to human subjects. Format: in vivo. The procedure:
One tablet was administered orally to a patient(weight: 67kg) in need of analgesia two times daily to successfully provide the effect of general analgesia.
The compound of Example 5 was dissolved in sesame oil with the aid of sonication and was packaged in soft gelatin capsules using the common methods known in the art.
The above ingredients were mixed to produce a syrup which was packaged under a sterile condition in 6 oz. bottles. One teaspoon of this formulation was administrated to a 70kg adult, reducing inflammation and producing analgesia.
The compound of Example 1 was dissolved in a solution containing the other ingredients.

A further series can be described thus: acute toxicity test. The following applies: mouse, in vivo, po, per os, 5 weeks old, observed for 14 days.
A further series has as its system Rats(Sprague-Dawley). In words: Tail-pinch test in rats with hyperalgesia induced by Freund's adjuvant. Format: in vivo. The procedure:
Rats(Sprague-Dawley) weighing 120g to 170g were used. Desiccated Mycobacterium butyricum(Difco Laboratories, Detroit, MI) was ground in a mortar, suspended in liquid paraffin, sterilized in an autoclave, and injected(0.5mg in 0.1mℓ, s.c.) in the distal region of the tail through a 1-inch 21-gauge needle. […] The hypersensitivity of the tail was examined as follows: the animal was held comfortably in one hand and gentle pressure was applied with the fingers of the opposite hand to the injected area. This gentle squeeze or "tail pinch" elicited a "squeak" from the animal. Five such stimuli were given at 4-second intervals. If the animal emitted no more than one squeak in five trials, it was recorded as having analgesia and given a rating of 1. […] The analgesic activity was determined by the following equation: Analgesic activity =(Total rating)/(Tested aminal number)x 100 [formula] The compound of Example 1, administered two hours before tail-pinch testing perorally, caused a dose related inhibition of adjuvant induced hyperalgesia, as shown in Table 6.

The subject of another series is KTC-ICR mice. In words: acetic acid induced writhing test. Format: in vivo. The following applies: Mus musculus; oral; 0.9% acetic acid i.p. 60 minutes later; writhings during 10 minutes; mice 20 to 25g; Examples 1 to 32. The method, then: The KTC-ICR mice derived from Charles River Breeding Laboratory in the United States and provided by Experimental Animal Laboratory of Korea Research Institute of Chemical Technology were used as test animals. […] They were tested after having been adjusted to the testing environment for a week. Food and water were given freely; and illumination was maintained on a 12-hour cycle.
Experiments were performed in two ways: that is, the acetic acid induced writhing test and the phenyl-1,4-benzoquinone(PBQ) induced writhing test.
Solutions for the acetic acid induced writhing test were prepared by dissolving one of the end products prepared in Examples […] in a saline solution containing 1% by weight of Tween 80 to have a concentration of 5mg/mℓ and diluting it serially with the saline solution. The test solutions were administered orally in a dose of 0.3mℓ per 30g of body weight, using the 5 ICR mice for each test. 60 minutes later, 0.9% acetic acid solution was administered intraperitoneally in a dose of 0.1mℓ per 30g of body weight. 3 minutes thereafter, the number of writhings generated during a period of 10 minutes due to the administration of acetic acid was measured. For comparison purpose, initially, saline solution alone was administered orally to the control group. 60 minutes thereafter, 0.9% acetic acid solution was administered intraperitoneally to the control group.
The number of writhings suffered by the test group was compared with that of the control group; and the analgesic effect was measured in terms of the percentage of inhibition of writhing(I. W.). I. W. (%) =(A - B)/(A)x 100 [formula] A : the number of writhings suffered by the control group, B : the number of writhings suffered by the test group.
These ED50 values for the test compounds are shown in the last column of Table 1.
In general terms: In writhing tests, fewer writhes than in controls are read as antinociception.

The test system of series [8] is mice. In words: Hot-plate test. Type of series: in vivo. The following applies: p. o. The method, then: Mice were placed on an aluminum plate maintained at 55± 0.5°C by a thermo-regulator(Harvard). A glass cylinder, 15cm in height and 15cm in diameter, served to confine the mice to the heated plate. Blowing of the fore paws was used as the end-point for determination of response latency(measured to the neatest 0.1 second).

Where [9] appears, read: 5 ICR female mice, read-out: LD50(female).
Where [10] appears, read: 5 ICR male mice, read-out: LD50(male).
[11] abbreviates: dose 5 mg/Kg, 7 rats, Example 1 perorally two hours before testing.
The mark [12] stands for this setting: s. c., twenty minutes before carrageenin, edema volume 3 hours later, read-out: ED50.

Turning to `CC(=O)Oc1ccccc1C(=O)O` [Aspirin], in series [1] (3 h), the ED50 (usually the dose at which the effect has come halfway, by size or by number of responders) worked out at 109 mg/kg. The “Inhibition(%)” value is reported as 0% with mice [2] (p. o., dose 100 mg/Kg) and 80.1% in series [3] (dose 100 mg/Kg s. c., 10 rats, pain threshold vs yeast-treated saline control).

On to `COc1cc(CC(=O)NCCCc2ccc(C)c(C)c2)ccc1OCCN` [Example 1, N-{3-(3,4-dimethylphenyl)propyl}-4-(2-aminoethoxy)-3-methoxyphenylacetamide], for which the “numbers of mutated colonies” value in series [4] and in series [5] was “not increased” in each case. Also, in [6], the “Double Dose(24 hr), percentage of inhibition” value worked out at 32%. The “Single Dose(1 hr), percentage of inhibition” value in series [6] is reported as 66%. In addition, the “local analgesia after topical application” value in series [7] (Use Example 5 liquid (4g in glycerol/water), 0.4mℓ on 80cm^2 of the forearm, 60kg male adult) is “local analgesia which lasted for two days”. For the same compound, in series [7] (Use Example 5 liquid, 0.4mℓ on 80cm^2 of the forearm, 60kg male adult), the “skin irritation after topical application” value is on record as “Little or no skin irritation was observed”. For the same compound, the LD50 (usually the dose at which mortality reaches 50%) at 336 h was determined as 364 mg/kg in the series “acute toxicity test” (setting [9]) and 224 mg/kg in the series “acute toxicity test” (setting [10]). In addition, the “Analgesic activity(%)” value in the series on Rats(Sprague-Dawley) (setting [11]) was 45.9%; in the series on Rats(Sprague-Dawley) (dose 10 mg/Kg, 6 rats, perorally two hours before testing), 66.7%. In addition, the 50% effective dose (ED50) in the series with KTC-ICR mice is 0.08 mg/kg; in [1] (setting [12]), 4 mg/kg. The “Inhibition(%)” value came out at 10% with mice [2] (p. o., dose 1.25 mg/Kg); 60% with mice [2] (p. o., dose 2.5 mg/Kg); 80% in the series with mice [2] (p. o., dose 5.0 mg/Kg); 90% in the series with mice [2] (p. o., dose 7.5 mg/Kg); 50% in the series with mice [2] (s. c., dose 0.5 mg/Kg); 70% in the series with mice [2] (s. c., dose 1.0 mg/Kg). Moreover, the “Inhibition(%)” value is 247.4% in series [3] (dose 5 mg/Kg p. o., 5 rats); 28.6% in the series with mice [8] (dose 2.5 mg/Kg); 48.9% with mice [8] (dose 5.0 mg/Kg); 97.0% with mice [8] (dose 10.0 mg/Kg).

As for `COc1cc(CC(=O)NCCCc2ccc(C)c(C)c2)ccc1OCCN` [Example 1-HCl], the “Inhibition(%)” value in [3] (dose 1.5 mg/Kg s. c., 8 rats) is 248.3%.

With `COc1cc(CC(=O)NCCCc2cccc(C)c2)ccc1OCCN` [Example 5], the “analgesic and anti-inflammatory effect in a human subject” value in series [7] (Use Example 2 soft gelatin capsules in sesame oil, two capsules, each 27mg of the composition, 63Kg person) was “producing the effects of analgesia and reducing inflammation”. The LD50 at 336 h in “acute toxicity test” (setting [9]) and in the series “acute toxicity test” (setting [10]) was 125 mg/kg in each case. The ED50 in the series on KTC-ICR mice stood at 0.07 mg/kg; in series [1] (setting [12]), 16.9 mg/kg.

For the compound `Cc1cc(C)cc(CCCNC(=O)Cc2ccc(OCCN)c(F)c2)c1` [Example 15], the LD50 at 336 h in “acute toxicity test” (setting [9]) and in the series “acute toxicity test” (setting [10]) was above 2000 mg/kg throughout. Also, in the series on KTC-ICR mice, the ED50 is 0.02 mg/kg.

For `CC(C(=O)O)c1cccc(C(=O)c2ccccc2)c1` (stereo not shown) [Ketoprofen], the 50% effective dose (ED50) in series [1] (3 h) came out at 7.2 mg/kg.

For the compound `CN1CC[C@]23c4c5ccc(O)c4O[C@H]2[C@@H](O)C=C[C@H]3[C@H]1C5` [Morphine], the “Inhibition(%)” value in [3] (rat, in vivo, 3 mg/kg) is 391.7%.

`COc1ccc2cc([C@H](C)C(=O)O)ccc2c1` [Naproxen, reference compound]: in [6], the “Double Dose(24 hr), percentage of inhibition” value worked out at 25% and the “Single Dose(1 hr), percentage of inhibition” value is reported as 54%. In addition, the “Analgesic activity(%)” value with Rats(Sprague-Dawley) (setting [11]) stood at 28.6%. In addition, the ED50 in series [1] (setting [12]) was 43 mg/kg.
